Assay results: article PMC6494831, “Drug-like Fragments Inhibit agr-Mediated Virulence Expression in Staphylococcus aureus” (Scientific Reports, 2019)
Read-outs that look alike come from different tables or passages of the source.

Target: AgrA (Staphylococcus aureus, UniProt P0A0I7)
Experiment: ITC with purified AgrAC, one-site fit, N fixed to […]
Assay type: binding

AgrA, sequence (P0A0I7 137-238): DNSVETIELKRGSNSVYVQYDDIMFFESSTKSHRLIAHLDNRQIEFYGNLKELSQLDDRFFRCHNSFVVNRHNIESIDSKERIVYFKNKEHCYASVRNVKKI

Row | Compound | Kd [µM] | Kd (read-out: Kd) [µM]
1 | O=C(O)C1c2ccccc2Oc2ccccc21 [compound 1, 9H-xanthene-9-carboxylic acid] | 485 ± 39.3 | –
2 | Cc1ccc(-c2nc(C(=O)O)cs2)cc1 [compound 2, 2-(4-methylphenyl)-1,3-thiazole-4-carboxylic acid] | 417 ± 62.9 | –
3 | Cc1cc(O)cc(C)c1C#N [compound 3, 4-hydroxy-2,6-dimethylbenzonitrile] | – | 110 ± 45.6
